Paper PMC2229492 (The Journal of General Physiology, 2000)
Changes are numbered by the printed parent chain. pEC50: −log10 of the molar value.

Tests used:
[1] = biological target: T1, rat olfactory CNG (OLF) channel (Rattus norvegicus, UniProt Q00195); assay: inside-out patch recording, cGMP dose-response; type: cell-based
T1 sequence (Q00195 1-664): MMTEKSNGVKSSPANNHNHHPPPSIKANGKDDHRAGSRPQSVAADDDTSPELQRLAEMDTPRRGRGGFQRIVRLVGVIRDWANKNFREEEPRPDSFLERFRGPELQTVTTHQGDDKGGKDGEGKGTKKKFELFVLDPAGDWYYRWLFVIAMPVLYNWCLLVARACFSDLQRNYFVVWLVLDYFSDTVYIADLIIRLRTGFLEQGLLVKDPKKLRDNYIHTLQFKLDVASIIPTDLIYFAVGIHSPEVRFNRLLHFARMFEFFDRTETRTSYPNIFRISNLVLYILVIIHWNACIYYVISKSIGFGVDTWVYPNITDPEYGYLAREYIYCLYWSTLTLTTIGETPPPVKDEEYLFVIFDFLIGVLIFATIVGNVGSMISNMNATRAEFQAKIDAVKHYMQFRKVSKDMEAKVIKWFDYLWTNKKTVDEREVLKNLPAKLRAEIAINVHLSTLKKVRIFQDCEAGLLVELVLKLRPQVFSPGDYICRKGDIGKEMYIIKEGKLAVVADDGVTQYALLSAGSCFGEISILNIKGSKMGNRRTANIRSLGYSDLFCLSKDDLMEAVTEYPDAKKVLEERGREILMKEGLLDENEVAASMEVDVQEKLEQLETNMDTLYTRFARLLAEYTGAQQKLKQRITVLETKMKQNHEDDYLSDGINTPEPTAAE

[2] = biological target: T2, rat olfactory CNG (OLF) channel (Rattus norvegicus, UniProt Q00195, W332Y); assay: inside-out patch recording, cGMP dose-response; type: cell-based
T2 sequence (Q00195 1-664 W332Y): T1 sequence (Q00195 1-664) with W332Y

pEC50 [1]: 5.61
pEC50 [2]: 4.75
SMILES: Nc1nc2c(ncn2[C@@H]2O[C@@H]3COP(=O)(O)O[C@H]3[C@H]2O)c(=O)[nH]1 [cGMP]
